Results: ChEMBL document CHEMBL1152560, “Substituted 2-arylbenzothiazoles as kinase inhibitors: hit-to-lead optimization” (Bioorg Med Chem, 2009)
pIC50: −log10 of the molar value.

What was measured:
[1] = target: T1, Tyrosine-protein kinase Mer (Homo sapiens) (UniProt Q12866); test: Residual activity of MERTK at 0.1 uM by microplate scintillation counting
T1 sequence (whole entry): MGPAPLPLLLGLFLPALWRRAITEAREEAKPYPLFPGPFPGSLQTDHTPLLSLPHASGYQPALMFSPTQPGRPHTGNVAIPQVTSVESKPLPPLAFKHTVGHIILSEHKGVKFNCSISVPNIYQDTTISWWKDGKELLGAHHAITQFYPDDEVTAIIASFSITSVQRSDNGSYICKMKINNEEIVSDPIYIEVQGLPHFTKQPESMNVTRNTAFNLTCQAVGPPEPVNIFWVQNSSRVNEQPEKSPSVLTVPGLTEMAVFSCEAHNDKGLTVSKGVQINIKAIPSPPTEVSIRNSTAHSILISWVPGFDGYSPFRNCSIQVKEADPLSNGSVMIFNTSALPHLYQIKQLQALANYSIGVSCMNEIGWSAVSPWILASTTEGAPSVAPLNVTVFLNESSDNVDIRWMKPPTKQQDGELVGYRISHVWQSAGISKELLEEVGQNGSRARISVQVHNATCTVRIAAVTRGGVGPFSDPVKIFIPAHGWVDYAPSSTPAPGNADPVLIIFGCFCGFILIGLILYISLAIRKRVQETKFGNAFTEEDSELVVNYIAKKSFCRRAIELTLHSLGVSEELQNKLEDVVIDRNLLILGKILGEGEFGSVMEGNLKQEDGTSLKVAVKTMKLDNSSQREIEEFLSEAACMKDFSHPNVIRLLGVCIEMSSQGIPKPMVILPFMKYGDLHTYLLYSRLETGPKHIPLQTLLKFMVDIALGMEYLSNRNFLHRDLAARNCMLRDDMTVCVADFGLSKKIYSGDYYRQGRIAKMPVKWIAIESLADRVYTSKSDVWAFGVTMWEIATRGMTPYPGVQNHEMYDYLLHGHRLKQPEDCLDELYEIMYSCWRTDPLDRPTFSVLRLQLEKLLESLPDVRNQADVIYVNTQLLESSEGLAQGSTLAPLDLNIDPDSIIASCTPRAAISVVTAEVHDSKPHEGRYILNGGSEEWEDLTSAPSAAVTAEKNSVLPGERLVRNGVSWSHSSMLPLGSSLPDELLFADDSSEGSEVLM

[2] = target: Calcium/calmodulin-dependent protein kinase type II subunit delta (Homo sapiens) (UniProt Q13557); test: Residual activity of CAMK2D at 1 uM by microplate scintillation counting
[3] = target: Tyrosine-protein kinase Lck (Homo sapiens) (UniProt P06239); test: Residual activity of LCK at 10 uM by microplate scintillation counting
[4] = target: Proto-oncogene tyrosine-protein kinase Src (Homo sapiens) (UniProt P12931); test: Residual activity of SRC at 1 uM by microplate scintillation counting
Proto-oncogene tyrosine-protein kinase Src (Homo sapiens), sequence (P12931 2-536 limits assumed): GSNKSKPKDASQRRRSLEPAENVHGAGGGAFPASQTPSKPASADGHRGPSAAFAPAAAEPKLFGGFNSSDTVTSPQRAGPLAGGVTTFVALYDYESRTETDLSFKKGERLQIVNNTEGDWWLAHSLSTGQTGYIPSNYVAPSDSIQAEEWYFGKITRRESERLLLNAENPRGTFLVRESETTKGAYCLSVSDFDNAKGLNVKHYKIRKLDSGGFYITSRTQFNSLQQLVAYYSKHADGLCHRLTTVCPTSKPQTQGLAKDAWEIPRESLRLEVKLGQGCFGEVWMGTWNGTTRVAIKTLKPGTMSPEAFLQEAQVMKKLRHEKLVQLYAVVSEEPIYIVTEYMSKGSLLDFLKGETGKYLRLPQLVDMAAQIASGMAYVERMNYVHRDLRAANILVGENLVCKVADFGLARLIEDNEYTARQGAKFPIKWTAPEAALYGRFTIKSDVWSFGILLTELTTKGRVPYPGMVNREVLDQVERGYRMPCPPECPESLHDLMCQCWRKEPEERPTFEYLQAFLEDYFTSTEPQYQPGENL

[5] = target: T1, Tyrosine-protein kinase Mer (Homo sapiens); test: Residual activity of MERTK at 1 uM by microplate scintillation counting
[6] = target: T2, MAP kinase-activated protein kinase 5 (Homo sapiens) (UniProt Q8IW41); test: Residual activity of MAPKAPK5 at 1 uM by microplate scintillation counting
T2 sequence (whole entry): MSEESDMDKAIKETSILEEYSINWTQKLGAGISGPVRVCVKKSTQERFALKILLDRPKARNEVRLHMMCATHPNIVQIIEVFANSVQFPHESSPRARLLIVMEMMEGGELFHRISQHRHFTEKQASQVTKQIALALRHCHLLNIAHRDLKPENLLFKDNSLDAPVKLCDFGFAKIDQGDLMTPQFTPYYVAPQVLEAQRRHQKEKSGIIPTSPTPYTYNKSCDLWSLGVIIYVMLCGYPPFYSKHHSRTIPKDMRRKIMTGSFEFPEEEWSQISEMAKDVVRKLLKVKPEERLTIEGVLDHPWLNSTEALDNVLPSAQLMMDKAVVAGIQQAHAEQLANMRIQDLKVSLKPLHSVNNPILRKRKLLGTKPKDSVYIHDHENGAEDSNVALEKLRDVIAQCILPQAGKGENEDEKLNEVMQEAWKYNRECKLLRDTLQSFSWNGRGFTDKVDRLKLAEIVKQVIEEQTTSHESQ

[7] = target: Angiopoietin-1 receptor (Homo sapiens, UniProt Q02763); test: Inhibition of TIE2 by microplate scintillation counting
[8] = target: Serine/threonine-protein kinase B-raf (Homo sapiens) (UniProt P15056); test: Residual activity of Wild type B-RAF at 0.1 uM by microplate scintillation counting
[9] = target: Serine/threonine-protein kinase MARK1 (Homo sapiens) (UniProt Q9P0L2); test: Residual activity of MARK1 at 0.1 uM by microplate scintillation counting
[10] = target: Proto-oncogene tyrosine-protein kinase ROS (Homo sapiens) (UniProt P08922); test: Residual activity of ROS at 1 uM by microplate scintillation counting
Proto-oncogene tyrosine-protein kinase ROS (Homo sapiens), sequence (P08922 whole entry): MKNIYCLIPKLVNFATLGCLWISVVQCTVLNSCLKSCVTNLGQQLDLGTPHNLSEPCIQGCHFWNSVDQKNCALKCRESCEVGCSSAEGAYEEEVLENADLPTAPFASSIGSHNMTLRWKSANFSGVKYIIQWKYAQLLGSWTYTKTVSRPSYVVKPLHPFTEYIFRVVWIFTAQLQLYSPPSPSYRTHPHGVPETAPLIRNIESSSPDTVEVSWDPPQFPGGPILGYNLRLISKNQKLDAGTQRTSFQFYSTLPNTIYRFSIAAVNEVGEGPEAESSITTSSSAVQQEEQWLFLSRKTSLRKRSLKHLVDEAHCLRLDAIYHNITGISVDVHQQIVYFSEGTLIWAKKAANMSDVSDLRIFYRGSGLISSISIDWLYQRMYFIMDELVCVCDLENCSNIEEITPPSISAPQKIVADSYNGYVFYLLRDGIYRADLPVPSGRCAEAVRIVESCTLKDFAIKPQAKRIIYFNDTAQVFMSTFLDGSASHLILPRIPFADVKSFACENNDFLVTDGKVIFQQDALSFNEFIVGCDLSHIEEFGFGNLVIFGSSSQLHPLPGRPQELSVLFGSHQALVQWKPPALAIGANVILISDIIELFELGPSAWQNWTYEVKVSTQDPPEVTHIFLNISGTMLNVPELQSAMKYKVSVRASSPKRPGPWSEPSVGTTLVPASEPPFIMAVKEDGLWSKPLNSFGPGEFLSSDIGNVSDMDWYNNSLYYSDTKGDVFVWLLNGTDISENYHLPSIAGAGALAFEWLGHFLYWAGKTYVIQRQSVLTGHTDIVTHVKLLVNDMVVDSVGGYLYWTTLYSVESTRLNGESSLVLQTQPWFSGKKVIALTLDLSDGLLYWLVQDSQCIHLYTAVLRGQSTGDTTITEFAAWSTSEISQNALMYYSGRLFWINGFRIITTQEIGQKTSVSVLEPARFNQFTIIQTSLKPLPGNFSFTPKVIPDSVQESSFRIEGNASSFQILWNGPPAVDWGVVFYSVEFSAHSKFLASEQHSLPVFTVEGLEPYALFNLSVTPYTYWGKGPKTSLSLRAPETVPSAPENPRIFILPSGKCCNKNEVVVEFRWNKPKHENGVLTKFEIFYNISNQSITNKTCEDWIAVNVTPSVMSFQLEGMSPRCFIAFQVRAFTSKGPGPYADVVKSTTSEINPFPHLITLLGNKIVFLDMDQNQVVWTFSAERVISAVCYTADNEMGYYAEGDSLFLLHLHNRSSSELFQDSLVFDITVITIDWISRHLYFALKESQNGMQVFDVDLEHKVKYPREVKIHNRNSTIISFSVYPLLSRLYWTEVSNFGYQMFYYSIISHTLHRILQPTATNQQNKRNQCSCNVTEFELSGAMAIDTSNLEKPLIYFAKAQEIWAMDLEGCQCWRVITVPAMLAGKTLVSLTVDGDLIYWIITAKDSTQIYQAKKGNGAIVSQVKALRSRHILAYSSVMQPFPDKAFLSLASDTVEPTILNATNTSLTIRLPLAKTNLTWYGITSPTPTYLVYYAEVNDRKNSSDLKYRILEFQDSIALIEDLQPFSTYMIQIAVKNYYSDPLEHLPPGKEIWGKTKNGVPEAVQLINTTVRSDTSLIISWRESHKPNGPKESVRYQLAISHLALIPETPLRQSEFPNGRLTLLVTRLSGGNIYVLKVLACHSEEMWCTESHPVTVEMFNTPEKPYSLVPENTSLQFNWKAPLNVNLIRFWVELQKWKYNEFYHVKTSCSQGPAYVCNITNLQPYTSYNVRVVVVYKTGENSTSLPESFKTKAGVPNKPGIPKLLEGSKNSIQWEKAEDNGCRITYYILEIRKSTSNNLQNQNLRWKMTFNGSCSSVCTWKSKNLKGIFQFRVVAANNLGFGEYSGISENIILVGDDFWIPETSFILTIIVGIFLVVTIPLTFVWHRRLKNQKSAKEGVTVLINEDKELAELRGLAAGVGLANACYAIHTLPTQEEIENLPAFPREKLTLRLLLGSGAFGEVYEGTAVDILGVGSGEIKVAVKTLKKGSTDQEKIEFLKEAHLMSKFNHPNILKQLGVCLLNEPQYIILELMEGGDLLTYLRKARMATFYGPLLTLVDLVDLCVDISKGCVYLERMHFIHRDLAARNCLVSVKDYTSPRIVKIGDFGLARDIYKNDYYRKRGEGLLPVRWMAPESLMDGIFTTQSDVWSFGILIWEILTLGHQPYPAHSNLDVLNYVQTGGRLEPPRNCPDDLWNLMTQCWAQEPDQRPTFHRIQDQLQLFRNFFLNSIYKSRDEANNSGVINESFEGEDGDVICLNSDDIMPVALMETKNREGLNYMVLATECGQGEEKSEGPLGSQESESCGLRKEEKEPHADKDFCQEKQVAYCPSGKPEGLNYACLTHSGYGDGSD

[11] = target: Serine/threonine-protein kinase PAK 5 (Homo sapiens) (UniProt Q9P286); test: Residual activity of PAK7 at 0.1 uM by microplate scintillation counting
[12] = target: NT-3 growth factor receptor (Homo sapiens) (UniProt Q16288); test: Residual activity of TRK-C at 1 uM by microplate scintillation counting
NT-3 growth factor receptor (Homo sapiens), sequence (Q16288 32-839 limits assumed): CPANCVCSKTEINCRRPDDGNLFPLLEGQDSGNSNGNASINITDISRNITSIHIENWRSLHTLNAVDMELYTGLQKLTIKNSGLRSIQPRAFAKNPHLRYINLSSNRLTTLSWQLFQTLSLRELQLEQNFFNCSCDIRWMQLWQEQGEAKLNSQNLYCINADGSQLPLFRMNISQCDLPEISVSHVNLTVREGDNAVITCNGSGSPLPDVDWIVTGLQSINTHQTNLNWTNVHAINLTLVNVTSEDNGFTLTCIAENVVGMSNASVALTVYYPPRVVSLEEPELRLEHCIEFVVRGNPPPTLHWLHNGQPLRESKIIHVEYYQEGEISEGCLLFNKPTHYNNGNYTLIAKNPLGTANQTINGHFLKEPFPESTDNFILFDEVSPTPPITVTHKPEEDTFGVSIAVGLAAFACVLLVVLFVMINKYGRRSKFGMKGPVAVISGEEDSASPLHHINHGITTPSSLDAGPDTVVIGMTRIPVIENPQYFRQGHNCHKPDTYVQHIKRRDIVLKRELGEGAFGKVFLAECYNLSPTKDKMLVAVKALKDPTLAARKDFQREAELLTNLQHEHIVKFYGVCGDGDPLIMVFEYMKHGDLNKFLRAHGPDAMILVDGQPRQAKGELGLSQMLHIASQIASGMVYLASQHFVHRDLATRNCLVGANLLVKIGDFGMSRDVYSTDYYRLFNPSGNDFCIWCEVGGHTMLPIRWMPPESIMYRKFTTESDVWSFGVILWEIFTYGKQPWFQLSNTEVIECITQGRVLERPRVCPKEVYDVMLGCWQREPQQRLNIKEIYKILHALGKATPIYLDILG

[13] = target: Serine/threonine-protein kinase SIK2 (Homo sapiens) (UniProt Q9H0K1); test: Residual activity of SNF1LK2 at 1 uM by microplate scintillation counting
[14] = target: Mitogen-activated protein kinase kinase kinase 14 (Homo sapiens) (UniProt Q99558); test: Residual activity of NIK at 0.1 uM by microplate scintillation counting
[15] = system: Serine/threonine-protein kinase B-raf (Homo sapiens), P15056 [V600E]; test: Residual activity of B-RAF V600E mutant at 1 uM by microplate scintillation counting
[16] = target: Tyrosine-protein kinase FRK (Homo sapiens) (UniProt P42685); test: Residual activity of FRK at 0.1 uM by microplate scintillation counting
[17] = target: Protein-tyrosine kinase 2-beta (Homo sapiens) (UniProt Q14289); test: Residual activity of PYK2 at 0.1 uM by microplate scintillation counting
Protein-tyrosine kinase 2-beta (Homo sapiens), sequence (Q14289 whole entry, looked up): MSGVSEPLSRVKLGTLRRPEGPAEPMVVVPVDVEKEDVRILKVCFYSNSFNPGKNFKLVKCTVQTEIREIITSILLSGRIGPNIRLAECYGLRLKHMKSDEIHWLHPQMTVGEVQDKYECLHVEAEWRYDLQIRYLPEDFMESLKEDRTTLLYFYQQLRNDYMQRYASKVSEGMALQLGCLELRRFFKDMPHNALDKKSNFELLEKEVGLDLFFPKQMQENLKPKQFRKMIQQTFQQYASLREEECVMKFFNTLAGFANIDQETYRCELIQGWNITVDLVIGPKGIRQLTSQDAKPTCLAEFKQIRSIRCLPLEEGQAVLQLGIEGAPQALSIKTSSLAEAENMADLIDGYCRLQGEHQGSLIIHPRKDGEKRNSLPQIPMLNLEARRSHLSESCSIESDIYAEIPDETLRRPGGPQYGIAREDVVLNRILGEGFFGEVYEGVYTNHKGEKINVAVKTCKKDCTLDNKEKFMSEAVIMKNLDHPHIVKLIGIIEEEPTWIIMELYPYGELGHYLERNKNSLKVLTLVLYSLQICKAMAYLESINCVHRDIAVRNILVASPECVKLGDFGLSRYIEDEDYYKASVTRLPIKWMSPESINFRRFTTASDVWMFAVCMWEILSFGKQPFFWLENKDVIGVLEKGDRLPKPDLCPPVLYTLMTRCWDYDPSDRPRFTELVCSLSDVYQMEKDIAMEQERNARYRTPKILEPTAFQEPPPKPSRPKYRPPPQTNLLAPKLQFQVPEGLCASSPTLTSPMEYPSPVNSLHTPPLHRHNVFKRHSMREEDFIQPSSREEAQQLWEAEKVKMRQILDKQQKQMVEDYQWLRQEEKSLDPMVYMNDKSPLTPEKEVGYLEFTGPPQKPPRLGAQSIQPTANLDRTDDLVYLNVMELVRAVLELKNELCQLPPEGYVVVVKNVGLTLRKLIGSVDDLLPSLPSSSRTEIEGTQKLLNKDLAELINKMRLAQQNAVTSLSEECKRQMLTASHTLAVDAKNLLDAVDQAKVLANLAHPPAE

[18] = target: Protein-tyrosine kinase 6 (Homo sapiens) (UniProt Q13882); test: Residual activity of BRK at 1 uM by microplate scintillation counting

With `COc1cc2c(Oc3ccc(-c4nc5ccccc5s4)cc3)ncnc2cc1OCCCN1CCN(C)CC1` the residual activity [1] was 75%, the residual activity [2] was 92% and the residual activity [3] was 4%. The residual activity [4] was 87%, the residual activity [5] was 16% and the residual activity [6] was 107%. The pIC50 [7] was 7.36, the residual activity [8] was 90% and the residual activity [9] was 98%. The residual activity [10] was 97%, the residual activity [11] was 80% and the residual activity [12] was 104%. It also gave a residual activity [13] of 88%, a residual activity [14] of 86% and a residual activity [15] of 86%. For the same compound, the residual activity [16] was 100%, the residual activity [17] was 102% and the residual activity [18] was 7%.

`COc1cc2c(Oc3ccc(-c4nc5ccccc5s4)cc3F)ncnc2cc1OCCCN1CCN(C)CC1` showed a residual activity [1] of 68%, a residual activity [2] of 97% and a residual activity [3] of 2%. For the same compound, the residual activity [4] was 89%, the residual activity [5] was 19% and the residual activity [6] was 90%. For the same compound, the pIC50 [7] was 7.06, the residual activity [8] was 95% and the residual activity [9] was 91%. The residual activity [10] was 102%, the residual activity [11] was 84% and the residual activity [12] was 104%. For the same compound, the residual activity [13] was 85%, the residual activity [14] was 86% and the residual activity [15] was 79%. It also gave a residual activity [16] of 99%, a residual activity [17] of 98% and a residual activity [18] of 4%.

In the case of `COc1cc2c(Oc3ccc(-c4nc5ccccc5s4)cc3)ncnc2cc1OCCCN1CCCC1`, the residual activity [1] was 57%, the residual activity [2] was 96% and the residual activity [3] was 6%. It also gave a residual activity [4] of 95%, a residual activity [5] of 11% and a residual activity [6] of 90%. It also gave a pIC50 [7] of 7.14, a residual activity [8] of 98% and a residual activity [9] of 90%. For the same compound, the residual activity [10] was 98%, the residual activity [11] was 92% and the residual activity [12] was 124%. For the same compound, the residual activity [13] was 78%, the residual activity [14] was 87% and the residual activity [15] was 83%. The residual activity [16] was 100%, the residual activity [17] was 103% and the residual activity [18] was 8%.
